From US20230192617A1, “AZABICYCLIC(THIO)AMIDES AS FUNGICIDAL COMPOUNDS” (Bayer CropScience Aktiengesellschaft, priority 2020, published 2023)

How the values were obtained:
[1] = Measurement of Log P values by HPLC on reversed phase columns (EEC directive 79/831 Annex V.A8); assay type: physicochemical; settings: method [a]: LC-UV, acidic range, 0.1% formic acid in water and acetonitrile as eluent
In short: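 Log P derived from retention on reversed-phase columns (EEC directive 79/831 Annex V.A8), LC-UV, acetonitrile gradient 10% to 95% against water containing 0.1% formic acid, 0.001 M ammonium acetate, or 0.1% phosphoric acid; several values per method separated by "+".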

Alternaria brassicae = assay: In vivo preventive test on Alternaria brassicae (leaf spot on radish or cabbage); settings: 500 ppm of active ingredient, preventive spray on radish or cabbage, evaluated 3 to 4 days after inoculation, read-out: efficacy
In short: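 Protective spray on young radish or cabbage: actives in water diluted from DMSO/acetone/Tween 80, with solvent-only controls. Leaves were challenged after 24 h with a spore suspension, and plants were held at 100% RH, 20 °C for 3 to 4 days.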

Botrytis cinerea [2] = assay: In vivo preventive test on Botrytis cinerea (grey mould); settings: 500 ppm of active ingredient, preventive spray on gherkin or cabbage, evaluated 4 to 5 days after inoculation, read-out: efficacy
In short: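 Preventive spray on cabbage or gherkin seedlings, with compound formulated in DMSO/acetone/Tween 80 and water-diluted, preceded spore inoculation by 24 hours. Cabbage was held 4 to 5 days at 20° C., 100% relative humidity; gherkin 4 to 5 days at 17° C., 90% relative humidity.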

Sphaerotheca fuliginea = assay: In vivo preventive test on Sphaerotheca fuliginea (powdery mildew on cucurbits); settings: Podosphaera fuliginea, 192 h; 500 ppm of active ingredient; preventive spray on gherkin; evaluated 8 days after inoculation; read-out: efficacy
Procedure: B-4. in vivo preventive test on Sphaerotheca fuliginea (powdery mildew on cucurbits) [table] The active ingredients were made soluble and homogenized in a mixture of Dimethyl sulfoxide/Acetone/Tween® 80 and then diluted in water to the desired concentration. The young plants of gherkin were treated by spraying the active ingredient prepared as described above. Control plants were treated only with an aqueous solution of Acetone/Dimethyl sulfoxide/Tween® 80. After 24 hours, the plants were contaminated by spraying the leaves with an aqueous suspension of Sphaerotheca fuliginea spores. The contaminated gherkin plants were incubated for 8 days at 20° C. and at 70-80% relative humidity.

[3] = tested on: Colletotrichum lindemuthianum; assay: In vivo preventive test on Colletotrichum lindemuthianum (leaf spot on bean); settings: 168 h, 500 ppm of active ingredient, preventive spray on bean, evaluated 7 days after inoculation, read-out: efficacy
Procedure: B-5. In Vivo Preventive Test on Colletotrichum lindemuthianum (Leaf Spot on Bean) [table] The active ingredients were made soluble and homogenized in a mixture of Dimethyl sulfoxide/Acetone/Tween® 80 and then diluted in water to the desired concentration. The young plants of bean were treated by spraying the active ingredient prepared as described above. Control plants were treated only with an aqueous solution of Acetone/Dimethyl sulfoxide/Tween® 80. After 24 hours, the plants were contaminated by spraying the leaves with an aqueous suspension of Colletotrichum lindemuthianum spores. The contaminated bean plants were incubated for 24 hours at 20° C. and at 100% relative humidity and then for 6 days at 20° C. and at 90% relative humidity.

Alternaria alternata = Alternaria alternata in vitro cell test; assay type: cell-based; settings: 120 h, 20 ppm of active ingredient, liquid culture, 5 days incubation, spectrometric measurement of mycelium growth, read-out: efficacy (inhibition of fungal growth)
In short: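 Spectrometric readout of mycelial growth after 5-day incubation gauged compound effects on spore germination and growth of A. alternata in liquid medium. Compounds were delivered in DMSO at ≤1% final. Absorbance was compared with untreated controls to give inhibition.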

[4] = tested on: Colletotrichum lindemuthianum; assay: B-8. Colletotrichum lindemuthianum in vitro cell test; assay type: cell-based; settings: 144 h, 20 ppm of active ingredient, 6 days incubation, liquid culture, absorbance, read-out: efficacy (inhibition of fungal growth)
In short: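 Liquid-culture germination/growth test: compounds in ≤1% final DMSO were added to spore-containing medium. Fungal growth was quantified spectrophotometrically after 6 days of incubation and expressed as inhibition versus untreated controls.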

Botrytis cinerea [5] = assay: B-11. Botrytis cinerea in vitro cell test; assay type: cell-based; settings: 144 h, 20 ppm of active ingredient, 6 days incubation, liquid culture, absorbance, read-out: efficacy (inhibition of fungal growth)
In short: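 B. cinerea spores were grown in liquid culture with compound (DMSO ≤1% final). Mycelium growth was measured spectrometrically after 6 days, with inhibition taken as absorbance relative to untreated control wells.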

Pyrenophora teres = assay: B-10. Pyrenophora teres in vitro cell test; assay type: cell-based; settings: 144 h, 20 ppm of active ingredient, 6 days incubation, liquid culture, absorbance, read-out: efficacy (inhibition of fungal growth)
In short: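 Liquid-culture assay on a P. teres spore suspension with compounds added to the medium from DMSO solutions, final DMSO ≤1%. Mycelium growth read spectrometrically after 6 days. Inhibition calculated from absorbance against untreated control wells.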

Compound | chromatographic logP ([1]; reversed phase HPLC column) | pest or weed control at 500 ppm (Alternaria brassicae) [%] | pest or weed control at 500 ppm (Botrytis cinerea [2]) [%] | pest or weed control at 500 ppm (Sphaerotheca fuliginea) [%] | pest or weed control at 500 ppm [3] [%] | inhibition at 20 ppm (Alternaria alternata) [%] | inhibition at 20 ppm [4] [%] | inhibition at 20 ppm (Botrytis cinerea [5]) [%] | inhibition at 20 ppm (Pyrenophora teres) [%] | chromatographic logP [1]
Cc1ccc2c(C(=O)NC[C@H](F)c3ccc(Br)cc3Cl)c(Oc3cccc(C(F)(F)F)c3)nnc2c1 (racemic) [I-046] | 4.57 | 90 to 100 | 90 to 100 | 90 to 100 | 90 to 100 | 90 to 100 | 90 to 100 |  |  | 
COc1cc([C@@H](F)CNC(=O)c2c(Oc3cccc(Cl)c3)nnc3ccccc23)ccc1Cl (racemic) [I-050] | 3.77 | 90 to 100 | 80 to 89 |  | 80 to 89 | 90 to 100 | 90 to 100 | 90 to 100 |  | 
Cc1ccc([C@@H](F)CNC(=O)c2c(Oc3cccc(Cl)c3)nnc3ccccc23)c(Cl)c1 (racemic) [I-052] | 4.19 | 90 to 100 | 90 to 100 | 90 to 100 | 90 to 100 | 90 to 100 | 90 to 100 | 90 to 100 |  | 
Cc1ccc([C@@H](F)CNC(=O)c2c(Oc3cccc(C(F)(F)F)c3)cnc3ccccc23)cc1C (racemic) [I-056] | 4.33 | 90 to 100 | 90 to 100 | 90 to 100 | 90 to 100 | 90 to 100 | 90 to 100 | 90 to 100 |  | 
Cc1ccc2c(c1)CCC[C@@H]2NC(=O)c1c(Oc2cccc(C(F)(F)F)c2)nnc2ccccc12 (racemic) [I-078] | 4.47 | 90 to 100 | 90 to 100 | 90 to 100 |  | 90 to 100 | 90 to 100 | 90 to 100 | 90 to 100 | 
O=C(NCC(F)c1ccc(Cl)cc1Cl)c1c(Oc2cccc(C(F)(F)F)c2)nnc2c1OCCO2 (racemic) [I-101, N-[2-(2,4-dichlorophenyl)-2-fluoro-ethyl]-3-[3-(trifluoro-methyl)phenoxy]-6,7-dihydro-[1,4]dioxino[2,3-c]pyridazine-4-carboxamide] | 3.37 | 90 to 100 | 90 to 100 | 90 to 100 | 90 to 100 | 90 to 100 | 80 to 89 |  |  | 
Cc1ccc([C@H](C)NC(=O)c2c(Oc3cccc(C(F)(F)F)c3)nnc3c2OCCO3)cc1 (racemic) [I-102] | 3.02 | 90 to 100 | 90 to 100 | 90 to 100 | 90 to 100 | 90 to 100 | 90 to 100 |  |  | 
O=C(NCC(F)(F)c1ccc(Cl)cc1)c1c(Oc2cccc(C(F)F)c2)nnc2ccccc12 [I-034] | 3.68 | 90 to 100 | 90 to 100 |  | 80 to 89 | 90 to 100 | 90 to 100 |  |  | 
O=C(NCC(F)(F)c1ccc(C2=CCCC2)cc1Cl)c1c(Oc2cccc(C(F)(F)F)c2)nnc2ccccc12 [I-073] | 5.4 | 90 to 100 | 90 to 100 |  | 80 to 89 |  |  | 90 to 100 | 90 to 100 | 
O=C(NCCc1ccc2c(c1)OCCO2)c1c(Oc2cccc(C(F)(F)F)c2)nnc2ccccc12 [I-086] |  | 90 to 100 | 90 to 100 |  | 90 to 100 | 90 to 100 | 90 to 100 | 90 to 100 | 90 to 100 | 3.42

Continued, in another order:

chromatographic logP ([1]; reversed phase HPLC column) | Compound | pest or weed control at 500 ppm (Alternaria brassicae) [%] | pest or weed control at 500 ppm (Botrytis cinerea [2]) [%] | pest or weed control at 500 ppm (Sphaerotheca fuliginea) [%] | pest or weed control at 500 ppm [3] [%] | inhibition at 20 ppm (Alternaria alternata) [%] | inhibition at 20 ppm [4] [%] | inhibition at 20 ppm (Botrytis cinerea [5]) [%] | inhibition at 20 ppm (Pyrenophora teres) [%] | chromatographic logP [1]
3.48 | O=C(NC[C@H](F)c1ccc(Br)cc1Cl)c1c(Oc2cccc(C(F)(F)F)c2)nnc2c1OCCO2 (racemic) [I-105] | 90 to 100 | 90 to 100 | 90 to 100 | 90 to 100 | 90 to 100 | 90 to 100 |  |  | 
3.6 | O=C(NCC(F)(F)c1ccc(Br)cc1Cl)c1c(Oc2cccc(C(F)(F)F)c2)nnc2c1OCCO2 [I-103] | 80 to 89 | 90 to 100 | 90 to 100 | 80 to 89 | 90 to 100 | 90 to 100 |  |  | 
3.37 | Cc1ccc(C(F)(F)CNC(=O)c2c(Oc3cccc(C(F)(F)F)c3)nnc3c2OCCO3)c(C)c1 [I-106] | 90 to 100 | 90 to 100 | 90 to 100 | 90 to 100 | 90 to 100 | 90 to 100 |  |  | 
3.84 | O=C(c1c(Oc2cccc(C(F)(F)F)c2)nnc2ccccc12)N(O)CCc1ccc(Cl)cc1 [I-167] | 90 to 100 | 70 to 79 |  | 80 to 89 |  | 80 to 89 | 90 to 100 | 90 to 100 | 
3.65 | O=C(N[C@H]1CCOc2ccccc21)c1c(Oc2cccc(C(F)(F)F)c2)nnc2ccccc12 [I-172] | 90 to 100 |  | 80 to 89 |  | 90 to 100 | 90 to 100 | 90 to 100 | 90 to 100 | 
4.62 | Cc1ccc(C(F)(F)CNC(=O)c2c(Oc3cccc(C(F)(F)F)c3)nnc3cc(F)ccc23)cc1C [I-175] | 90 to 100 |  |  | 80 to 89 | 90 to 100 | 90 to 100 | 90 to 100 | 90 to 100 | 
4.13 | C#Cc1cccc(Oc2cnc3ccccc3c2C(=O)NCC(F)(F)c2ccc(C)cc2C)c1 [I-215] | 80 to 89 | 90 to 100 | 90 to 100 |  | 80 to 89 | 90 to 100 | 90 to 100 | 90 to 100 | 
4.4 | C=Cc1cccc(Oc2cnc3ccccc3c2C(=O)NCC(F)(F)c2ccc(C)cc2C)c1 [I-221] | 90 to 100 | 90 to 100 |  | 70 to 79 | 90 to 100 | 90 to 100 | 90 to 100 | 90 to 100 | 
4.43 | Cc1ccc(C(F)(F)CNC(=O)c2c(Oc3cccc(Br)c3F)cnc3ccccc23)c(C)c1 [I-225] | 70 to 79 | 90 to 100 | 90 to 100 |  | 90 to 100 | 90 to 100 | 90 to 100 | 90 to 100 | 
4.85 | Cc1ccc(C(F)(F)CNC(=O)c2c(Oc3cccc(C(F)(F)F)c3)nnc3c2CCC3(C)C)c(C)c1 [I-232] | 80 to 89 | 90 to 100 | 90 to 100 |  |  | 70 to 79 | 90 to 100 | 90 to 100 | 
